Results as given in patent US9056835B2, “LPA2 receptor-specific benzoic acid derivatives” (University of Tennessee Research Foundation, priority 2012, dated 2015).
pEC50: −log10 of the molar value. Read-outs that look alike come from different tables or passages of the source.

How the values were obtained:
[1] = system: vector- and LPA2-transduced MEF cells; experiment: Adriamycin-induced apoptosis, caspase activity assay; type: cell-based, mouse; settings: for decrease in caspase-8 activation / decrease in caspase 9 activation: GRI977143 10 μM; for protection against caspase 3 and 7 activation: GRI977143 above 3 μM; for inhibition of caspase 3/7 activation: 10 μM
Protocol: Experiments were performed on vector- and LPA2-transduced MEF cells. To measure caspase 3, 7, 8, or 9 activity and DNA fragmentation, cells were plated in 48-well plates (2×10^4 cells/well). To detect PARP-1 cleavage and Bax translocation, 1.5×10^6 cells were plated in 10-cm dishes and cultured overnight in full growth medium. The next morning, the growth medium was replaced by serum-starvation medium and cells were pretreated for 1 h with LPA (1-10 μM), OTP (1-10 μM), GRI977143 (1-10 μM), or vehicle. Caspase activity, DNA fragmentation, PARP-1 cleavage, and Bax translocation were measured 5 h after incubation with 1.7 μM Adriamycin or 24 h after serum withdrawal.
Caspase-Glow® 3/7, Caspase-Glow® 8 and Caspase-Glow® 9 reagents were purchased from Promega (Madison, Wis.) and used according to the manufacturer's instructions. Briefly, cells were lysed by adding 50 μl of lysis reagent per well, followed by shaking for 30 min at room temperature. […] lysate were transferred to a 96-well white-wall plate, and luminescence was measured using a BioTek® (Winooski, Vt.) plate reader.

IEC-6 cells = experiment: TNF-α/CHX-induced apoptosis, DNA fragmentation; type: cell-based, rat; settings: OTP 10 μM, LPA 1 μM, GRI977143 10 μM
Protocol: Confluent serum-starved IEC-6 cells were treated with or without TNF-α (10 ng/ml)/cycloheximide (CHX) (20 μg/ml) in the presence of OTP (10 μM), GRI977143 (10 μM), or LPA (1 μM) for 3 h. Cells were washed twice with PBS and the quantitative DNA fragmentation assay was carried out as described previously (Valentine et al., (S)—FTY720-vinylphosphonate, an analogue of the immunosuppressive agent FTY720, is a pan-antagonist of sphingosine 1-phosphate GPCR signaling and inhibits autotaxin activity. Cell Signal (2010) 22(10): 1543-1553).
Apoptotically-challenged cells were washed twice with PBS, and a quantitative DNA fragmentation assay was carried out using a Cell Death Detection ELISA PLUS kit (Roche Diagnostics, Penzberg, Germany) and normalized to protein concentration using the BCA Protein Assay Kit (Thermo Fisher Scientific, Inc.; Rockford, Ill.) as described previously (Valentine et al., 2010). Aliquots of nuclei-free cell lysate were placed in streptavidin-coated wells and incubated with anti-histone-biotin antibody and anti-DNA peroxidase-conjugated antibody for 2 h at room temperature. After the incubation, the sample was removed, and the wells were washed and incubated with 100 μl 2,2′-azino-di[3-ethylbenzthiazolin-sulfonate substrate at room temperature before the absorbance was read at 405 nm. Results were expressed as absorbance at 405 nm/min/mg protein as detailed in our previous report (Ray et al., Mdm2 inhibition induces apoptosis in p53 deficient human colon cancer cells by activating p73- and E2F1-mediated expression of PUMA and Siva-1. Apoptosis (2011) 16(1): 35-44).

LPA2 = LPA2 (Homo sapiens, UniProt Q9HBW0); experiment: LPA receptor-mediated Ca2+ mobilization assay, LPA2 (RH7777 cells stably expressing LPA2); type: cell-based; set-up: expressed in transfected cells; settings: for pEC50: agonist, Ca2+ mobilization, read-out: LPA2 EC50; for receptor specificity of activation among established and putative LPA GPCRs: up to 10 μM
Protocol: Similarity searches were performed separately using each fingerprint to quantitate similarity. Hits meeting the 80% similarity threshold from each search were ranked based on the Tanimoto coefficient measure of similarity to a target molecule NSC12404, and the top 75 unique hits from each fingerprint search were selected for further analysis. […] This selected a diverse subset of 27 compounds for biological evaluation by choosing the middle compounds in each cluster. These 27 compounds were tested in Ca^2+ mobilization assays at a concentration of 10 μM using stable cell lines individually expressing LPA2 and also in vector-transfected control cells. Hits activating LPA2 were further tested using cells expressing the other established and putative LPA GPCRs. […] They arbitrarily selected GRI977143 for further characterization in cell-based assays.
The newly-synthesized compounds were tested for their ability to induce Ca^2+ transients in RH7777 cells stably expressing the LPA2 receptor.
The cells were loaded with Fura-2-acetoxymethyl esther (Fura-2/AM) in Krebs buffer containing 0.01% pluronic acid for 30 min and rinsed with Krebs buffer before measuring Ca^2+ mobilization. The ratio of peak emissions at 510 nm after 2 min of ligand addition was determined for excitation wavelengths of 340 nm/380 nm. All samples were run in quadruplicate. […] The half maximally effective concentration (EC50), and inhibitory constant (Ki) values were calculated by fitting a sigmoid function to dose-response data points using KaleidaGraph software (version 4.1, Synergy Software; […]).
Mouse embryonic fibroblast (MEF) cells were isolated from E13.5 LPA1&2 double knockout (DKO) embryos. MEFs were transduced with empty vector or LPA2-containing lentiviruses and selected with 1.5 μg/ml puromycin. Cells were maintained in Dulbecco's modified Eagle medium (DMEM) supplemented with 10% (V/V) fetal bovine serum (FBS), 2 mM L-glutamine, 100 U/mL penicillin, and 100 μg/mL streptomycin. Serum-free medium contained 0.1% (W/V) BSA in DMEM. The rat intestinal epithelial cell line 6 (IEC-6) was obtained from the American Type Culture Collection (Rockville, Md.) at passage 13; passages 16-21 were used in all experiments. IEC-6 cells were maintained in a humidified 37° C. incubator in an atmosphere of 90% air and 10% CO2. Growth medium consisted of DMEM supplemented with 5% heat inactivated FBS, 10 μg/mL insulin, and 50 μg/mL gentamycin. The composition of the serum-starvation medium was the same as that of the full growth medium except that it contained no FBS. The McArdle rat hepatoma cell line (RH7777) stably expressing LPA2 receptors was a gift from Dr. Fumikazu Okajima (Gunma University, Maebashi, Japan). RH7777 cells stably expressing LPA1 or LPA3 receptors were generated in-house and had been characterized earlier. Wild type and LPA receptor (LPAR) stably transfected RH7777 cells were grown in DMEM supplemented with 10% FBS and 2 mM L-glutamine in the presence of 250 μg/ml G418. Chinese hamster ovary (CHO) cells stably expressing either vector or LPA4 receptor were a kind gift from Dr. Takao Shimizu (Tokyo University; Tokyo, Japan). Cells were cultured in Ham's F12 medium containing 10% FBS, 2 mM L-glutamine, and 350 μg/ml G418. Rat neuroblastoma cells (B103) were transduced with the lentivirus harboring wild type of FLAG-LPA5 and selected with puromycin to establish the stable cell lines. The stable cells were maintained in DMEM supplemented with 10% FBS and 0.4 μg/ml puromycin. GPR87- and P2Y10-expressing CHO cells and vector-transfected control cells were a gift from Dr. Norihisha Fujita (Ritsumeikan University; Shiga, Japan). The highly invasive MM1 rat hepatoma cells (gift from Dr. Michiko Mukai, Osaka University, Japan) were grown in suspension in DMEM supplemented with 10% (V/V) FBS, 2 mM L-glutamine, 100 U/mL penicillin, and 100 μg/mL streptomycin.

[2] = LPA2-transduced MEF, LPA and OTP 1 μM
[3] = vector-transduced MEF, LPA and OTP 1 μM

Sequence of LPA2 (Q9HBW0 whole entry): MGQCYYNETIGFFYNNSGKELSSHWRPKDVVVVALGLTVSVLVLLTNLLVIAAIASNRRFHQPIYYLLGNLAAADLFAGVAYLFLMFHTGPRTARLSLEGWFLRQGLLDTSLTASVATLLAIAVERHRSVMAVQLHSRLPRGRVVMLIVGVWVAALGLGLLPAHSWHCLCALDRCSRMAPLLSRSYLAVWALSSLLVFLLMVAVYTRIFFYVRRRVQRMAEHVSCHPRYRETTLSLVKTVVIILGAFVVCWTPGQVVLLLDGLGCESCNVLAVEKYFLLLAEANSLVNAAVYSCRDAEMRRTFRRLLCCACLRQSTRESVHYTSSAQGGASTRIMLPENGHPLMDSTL

Molecule	decrease in caspase-8 activation [1, 2]	decrease in caspase 9 activation ([1]; LPA2-transduced MEF, OTP 1 μM)	protection against caspase 3 and 7 activation ([1]; LPA2-transduced MEF)	inhibition of caspase 3/7 activation ([1]; vector-transduced MEF)	decrease in caspase 9 activation [1, 3]	DNA fragmentation induced by TNF-α/CHX (IEC-6 cells)	Emax (LPA2; Ca2+ transients, RH7777 cells stably expressing LPA2)	EC50 (LPA2; Ca2+ transients, RH7777 cells stably expressing LPA2, read-out: EC50 (μM) (RH7777))	pEC50 (LPA2)	receptor specificity of activation among established and putative LPA GPCRs (LPA2)	decrease in caspase 8 activation [1, 3]
O=C(O)c1ccccc1SCCCN1C(=O)c2cccc3cccc(c23)C1=O [GRI977143]	41±5%	46±4%	significant protection	did not attenuate	did not affect	significantly reduced	64%	3.3 µM	5.48	activated only LPA2	
octadecenyl thiophosphate [OTP]	33±2%	38±1%	protected	did not attenuate		completely blocked			6.47		15±5%
O=C(O)c1cc(Cl)c(Cl)cc1C(=O)Nc1ccc2c(c1)C(=O)c1ccccc1-2 [Compound H2L5547924]									5.55	activated only LPA2	
CCCCCCCC/C=C\CCCCCCCC(=O)OC[C@@H](O)COP(=O)(O)O [LPA 18:1, Lysophosphatidic acid (18:1)]	36±1%		protected	26±1%		significantly reduced					12±2%
O=C(O)c1ccccc1C(=O)Nc1ccc2c(c1)C(=O)c1ccccc1-2 [NSC12404]									5.02		
O=C(O)c1ccccc1C(=O)Nc1ccc2c(c1)C(=O)c1ccccc1C2=O [Compound H2L5828102]									5.48	activated only LPA2	
